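Interpolation was linear, between the two tested concentrations surrounding the appropriate level; five concentrations were tested over 48 hours in 96-well plates. Here, GI50 denotes the concentration required for 50% inhibition of growth.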 The source made the active and inactive calls. No stated cut-off is given here; in the data, active = GI50 up to about 1.1 µM and inactive = higher.
Columns and labels:
Experiment in all cases: NCI anticancer screen, dose series, 48 h
SNB-75 = test system: SNB-75
UO-31 = test system: UO-31
NCI-H522 = test system: NCI-H522
OVCAR-8 = test system: OVCAR-8
NCI/ADR-RES = test system: NCI/ADR-RES
786-0 = test system: 786-0
MOLT-4 = test system: MOLT-4
COLO 205 = test system: COLO 205
Hs-578T = test system: Hs-578T
OVCAR-4 = test system: OVCAR-4
M14 = test system: M14
HT-29 = test system: HT-29
KM12 = test system: KM12
IGROV-1 = test system: IGROV-1
SK-MEL-2 = test system: SK-MEL-2
BT-549 = test system: BT-549
TK-10 = test system: TK-10
UACC-62 = test system: UACC-62
SF-295 = test system: SF-295
CAKI-1 = test system: CAKI-1
SNB-19 = test system: SNB-19
HCC 2998 = test system: HCC 2998
SF-539 = test system: SF-539
SK-MEL-5 = test system: SK-MEL-5
NCI-H460 = test system: NCI-H460
ACHN = test system: ACHN
NCI-H226 = test system: NCI-H226
A498 = test system: A498
HOP-92 = test system: HOP-92
LOX IMVI = test system: LOX IMVI
HOP-62 = test system: HOP-62
A549 = test system: A549
MDA-MB-231 = test system: MDA-MB-231
MDA-N = test system: MDA-N
HCT-116 = test system: HCT-116
SN12C = test system: SN12C
MCF7 = test system: MCF7
RPMI-8226 = test system: RPMI-8226
DU-145 = test system: DU-145
HL-60 = test system: HL-60
EKVX = test system: EKVX
K562 = test system: K562
SK-OV-3 = test system: SK-OV-3
Malme-3M = test system: Malme-3M
MDA-MB-435 = test system: MDA-MB-435
UACC-257 = test system: UACC-257
OVCAR-3 = test system: OVCAR-3
PC-3 = test system: PC-3
CCRF-CEM = test system: CCRF-CEM
OVCAR-5 = test system: OVCAR-5
NCI-H23 = test system: NCI-H23
SF-268 = test system: SF-268
T47D = test system: T47D
SW-620 = test system: SW-620
HCT-15 = test system: HCT-15
RXF 393 = test system: RXF 393
SK-MEL-28 = test system: SK-MEL-28
U-251 = test system: U-251
SR = test system: SR

With `Cc1cc(/N=C/c2c(CO)cnc(C)c2O)c(/N=C/c2c(CO)cnc(C)c2O)cc1C.[Zn+2]` the GI50 (SNB-75) was > 100 µM (inactive), the GI50 (UO-31) was > 100 µM (inactive) and the GI50 (NCI-H522) was > 100 µM (inactive). The GI50 (OVCAR-8) was > 100 µM (inactive), the GI50 (NCI/ADR-RES) was > 100 µM (inactive) and the GI50 (786-0) was > 100 µM (inactive). The GI50 (MOLT-4) was > 100 µM (inactive), the GI50 (COLO 205) was > 100 µM (inactive) and the GI50 (Hs-578T) was > 100 µM (inactive). The GI50 (OVCAR-4) was > 100 µM (inactive), the GI50 (M14) was > 100 µM (inactive) and the GI50 (HT-29) was > 100 µM (inactive). For the same molecule, the GI50 (KM12) was > 100 µM (inactive), the GI50 (IGROV-1) was > 100 µM (inactive) and the GI50 (SK-MEL-2) was > 100 µM (inactive). The GI50 (BT-549) was > 100 µM (inactive), the GI50 (TK-10) was > 100 µM (inactive) and the GI50 (UACC-62) was > 100 µM (inactive). For the same molecule, the GI50 (SF-295) was > 100 µM (inactive), the GI50 (CAKI-1) was > 100 µM (inactive) and the GI50 (SNB-19) was > 100 µM (inactive). The GI50 (HCC 2998) was > 100 µM (inactive), the GI50 (SF-539) was > 100 µM (inactive) and the GI50 (SK-MEL-5) was > 100 µM (inactive). For the same molecule, the GI50 (NCI-H460) was > 100 µM (inactive), the GI50 (ACHN) was > 100 µM (inactive) and the GI50 (NCI-H226) was > 100 µM (inactive). The GI50 (A498) was > 100 µM (inactive), the GI50 (HOP-92) was > 100 µM (inactive) and the GI50 (LOX IMVI) was > 100 µM (inactive). The GI50 (HOP-62) was > 100 µM (inactive), the GI50 (A549) was > 100 µM (inactive) and the GI50 (MDA-MB-231) was > 100 µM (inactive). For the same molecule, the GI50 (MDA-N) was > 100 µM (inactive) and the GI50 (HCT-116) was > 100 µM (inactive).
With `O=c1oc(-c2ccc(O)c(O)c2)cc2cccc(O)c12` [THUNBERGINOL A] the GI50 (SN12C) was 14.4 µM (inactive), the GI50 (MCF7) was 9.57 µM (inactive) and the GI50 (SNB-75) was 23.1 µM (inactive). For the same molecule, the GI50 (UO-31) was 14.7 µM (inactive), the GI50 (NCI-H522) was 15.4 µM (inactive) and the GI50 (OVCAR-8) was 36.6 µM (inactive). For the same molecule, the GI50 (RPMI-8226) was 10.5 µM (inactive), the GI50 (DU-145) was 23.8 µM (inactive) and the GI50 (HL-60) was 17.1 µM (inactive). For the same molecule, the GI50 (EKVX) was 14.1 µM (inactive), the GI50 (NCI/ADR-RES) was 14.6 µM (inactive) and the GI50 (786-0) was 19.6 µM (inactive). The GI50 (K562) was 22.1 µM (inactive), the GI50 (MOLT-4) was 3.42 µM (inactive) and the GI50 (SK-OV-3) was 29.4 µM (inactive). For the same molecule, the GI50 (Malme-3M) was 31.3 µM (inactive), the GI50 (MDA-MB-435) was 24.2 µM (inactive) and the GI50 (COLO 205) was 10.5 µM (inactive). For the same molecule, the GI50 (Hs-578T) was 21.2 µM (inactive), the GI50 (OVCAR-4) was 20.1 µM (inactive) and the GI50 (M14) was 19.5 µM (inactive). The GI50 (KM12) was 11.4 µM (inactive), the GI50 (IGROV-1) was 6.19 µM (inactive) and the GI50 (SK-MEL-2) was 26.1 µM (inactive). The GI50 (UACC-257) was 22.6 µM (inactive), the GI50 (BT-549) was 15.6 µM (inactive) and the GI50 (TK-10) was 4.9 µM (inactive). The GI50 (OVCAR-3) was 10.5 µM (inactive), the GI50 (PC-3) was 11.1 µM (inactive) and the GI50 (CCRF-CEM) was 998 nM (active). The GI50 (SF-295) was 27.5 µM (inactive), the GI50 (CAKI-1) was 6.71 µM (inactive) and the GI50 (SNB-19) was 19.1 µM (inactive). For the same molecule, the GI50 (HCC 2998) was 12.8 µM (inactive), the GI50 (OVCAR-5) was 22 µM (inactive) and the GI50 (SF-539) was 23.9 µM (inactive). The GI50 (SK-MEL-5) was 9.4 µM (inactive), the GI50 (NCI-H23) was 16.1 µM (inactive) and the GI50 (SF-268) was 19.8 µM (inactive). The GI50 (NCI-H460) was 13.4 µM (inactive), the GI50 (T47D) was 0.871 µM (active) and the GI50 (ACHN) was 21.4 µM (inactive). For the same molecule, the GI50 (A498) was 19.9 µM (inactive), the GI50 (HOP-92) was 2.07 µM (inactive) and the GI50 (HOP-62) was 15.2 µM (inactive). The GI50 (SW-620) was 21.1 µM (inactive), the GI50 (HCT-15) was 4.99 µM and the GI50 (A549) was 35.4 µM (inactive). The GI50 (RXF 393) was 18.9 µM (inactive) and the GI50 (HCT-116) was 10.3 µM (inactive).
For `COC(=O)C1C(O)CCC2CN3CCc4c([nH]c5ccccc45)C3CC21` (stereo unspecified), the GI50 (SNB-75) was > 100 µM (inactive), the GI50 (UO-31) was > 100 µM (inactive) and the GI50 (EKVX) was > 100 µM (inactive). The GI50 (786-0) was > 100 µM (inactive), the GI50 (SK-OV-3) was > 100 µM (inactive) and the GI50 (MDA-MB-435) was > 100 µM (inactive). For the same molecule, the GI50 (SK-MEL-28) was 76 µM (inactive), the GI50 (IGROV-1) was > 100 µM (inactive) and the GI50 (UACC-257) was > 100 µM (inactive). For the same molecule, the GI50 (BT-549) was > 100 µM (inactive), the GI50 (OVCAR-3) was > 100 µM (inactive) and the GI50 (PC-3) was > 100 µM (inactive). The GI50 (HCC 2998) was 59.4 µM (inactive), the GI50 (OVCAR-5) was > 100 µM (inactive) and the GI50 (SF-268) was > 100 µM (inactive). For the same molecule, the GI50 (NCI-H460) was > 100 µM (inactive), the GI50 (T47D) was > 100 µM (inactive) and the GI50 (U-251) was > 100 µM (inactive). For the same molecule, the GI50 (SW-620) was > 100 µM (inactive), the GI50 (HCT-15) was greater than 100 µM and the GI50 (A549) was > 100 µM (inactive).
`NCc1ccc(C(=O)O)cc1` [AMINOMETHYLBENZOIC ACID] was tested, and the GI50 (SN12C) was > 100 µM (inactive), the GI50 (UO-31) was > 100 µM (inactive) and the GI50 (NCI-H522) was > 100 µM (inactive). For the same molecule, the GI50 (OVCAR-8) was > 100 µM (inactive), the GI50 (DU-145) was > 100 µM (inactive) and the GI50 (SR) was > 100 µM (inactive). For the same molecule, the GI50 (HL-60) was > 100 µM (inactive), the GI50 (EKVX) was > 100 µM (inactive) and the GI50 (NCI/ADR-RES) was > 100 µM (inactive). For the same molecule, the GI50 (786-0) was > 100 µM (inactive), the GI50 (K562) was > 100 µM (inactive) and the GI50 (MOLT-4) was > 100 µM (inactive). The GI50 (Malme-3M) was > 100 µM (inactive), the GI50 (MDA-MB-435) was > 100 µM (inactive) and the GI50 (OVCAR-4) was > 100 µM (inactive). The GI50 (M14) was > 100 µM (inactive), the GI50 (HT-29) was > 100 µM (inactive) and the GI50 (SK-MEL-28) was > 100 µM (inactive). For the same molecule, the GI50 (KM12) was > 100 µM (inactive), the GI50 (IGROV-1) was > 100 µM (inactive) and the GI50 (UACC-257) was > 100 µM (inactive). For the same molecule, the GI50 (BT-549) was > 100 µM (inactive), the GI50 (TK-10) was > 100 µM (inactive) and the GI50 (OVCAR-3) was > 100 µM (inactive). The GI50 (UACC-62) was > 100 µM (inactive), the GI50 (PC-3) was > 100 µM (inactive) and the GI50 (SF-295) was > 100 µM (inactive). The GI50 (CAKI-1) was > 100 µM (inactive), the GI50 (SNB-19) was > 100 µM (inactive) and the GI50 (HCC 2998) was > 100 µM (inactive). For the same molecule, the GI50 (OVCAR-5) was > 100 µM (inactive), the GI50 (SK-MEL-5) was > 100 µM (inactive) and the GI50 (NCI-H23) was > 100 µM (inactive). The GI50 (SF-268) was > 100 µM (inactive), the GI50 (NCI-H460) was > 100 µM (inactive) and the GI50 (T47D) was > 100 µM (inactive). For the same molecule, the GI50 (ACHN) was > 100 µM (inactive), the GI50 (NCI-H226) was > 100 µM (inactive) and the GI50 (A498) was > 100 µM (inactive). The GI50 (HOP-92) was > 100 µM (inactive), the GI50 (U-251) was > 100 µM (inactive) and the GI50 (LOX IMVI) was > 100 µM (inactive). For the same molecule, the GI50 (HOP-62) was > 100 µM (inactive), the GI50 (SW-620) was > 100 µM (inactive) and the GI50 (HCT-15) was greater than 100 µM. The GI50 (A549) was > 100 µM (inactive), the GI50 (RXF 393) was > 100 µM (inactive) and the GI50 (MDA-MB-231) was > 100 µM (inactive). The GI50 (MDA-N) was > 100 µM (inactive) and the GI50 (HCT-116) was > 100 µM (inactive).

Source: ChEMBL document CHEMBL1201862, “PubChem BioAssay data set” (2004)
